Experimental data as given in US20240096447A1, “METHODS OF GENERATING PHENOCOPY SIGNATURES AND USES THEREOF” (Wisconsin Alumni Research Foundation, priority 2022, published 2024).

Legend:
breast cancer patients [1] = assay: Response to neoadjuvant everolimus in a breast cancer cohort (GSE119262), by mTOR phenocopy status; assay type: in vivo, human; settings: neoadjuvant everolimus followed by surgery
breast cancer patients [2] = assay: Pathologic complete response in the chemoimmunotherapy (pembrolizumab) arm of the I-SPY2 trial, by TP53 loss phenocopy status; assay type: in vivo, human; settings: pembrolizumab with anthracycline/taxane-based neoadjuvant chemotherapy backbone
Source text: In addition, we sought to identify published cohorts with pre-chemotherapy RNA profiling with pathologic response data. The majority of data we could find was in the setting of breast cancer neoadjuvant chemotherapy, where response could be assessed at the time of surgery. Our dataset evaluating clinical treatment response and the phenocopy signatures in breast cancer included 18 breast cancer cohorts with gene expression data downloaded from the Gene Expression Omnibus (GEO) with the following accession numbers: GSE22093, GSE25055, GSE41998, GSE20194, GSE4779, GSE8465, GSE66399, GSE16446, GSE20271, GSE18864, GSE25065, GSE32646, GSE164458, GSE22226, GSE192341, GSE163882, GSE34138, GSE32603, and one additional publicly available TNBC gene expression cohort^48. Finally, we utilized gene expression and clinical response data from the I-SPY2 trial as an independent clinical validation cohort for our phenocopy signatures and breast cancer neoadjuvant therapy response, also downloaded from GEO (GSE194040).
Each of the breast cancer datasets had annotations for pathologic response (pCR versus no pCR) for each sample. The TP53 phenocopy signature was then applied without modification to pre-treatment samples from each breast cancer study, with normalization/batch correction as above. […]

## CO[C@H]1C[C@@H]2CC[C@@H](C)[C@@](O)(O2)C(=O)C(=O)N2CCCC[C@H]2C(=O)O[C@H]([C@H](C)C[C@@H]2CC[C@@H](OCCO)[C@H](OC)C2)CC(=O)[C@H](C)/C=C(\C)[C@@H](O)[C@@H](OC)C(=O)[C@H](C)C[C@H](C)/C=C/C=C/C=C/1C [everolimus]
Breast cancer patients [1]; pre-treatment non-mTOR phenocopy tumors
  tumors that responded to anti-mTOR therapy: 75.8%
Breast cancer patients [1]; pre-treatment samples predicted as mTOR mutation phenocopies
  tumors that responded to anti-mTOR therapy: 100%

## pembrolizumab
Breast cancer patients [2]; TP53 loss phenocopy samples
  pCR rate: 64%
Breast cancer patients [2]; non-phenocopy samples
  pCR rate: 28%
